Test results reported in ChEMBL document CHEMBL1201862, “PubChem BioAssay data set” (2004).
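Results reflect a 48-hour exposure of cells in 96-well plates to compound at five concentrations. Here, GI50 denotes the concentration required for 50% inhibition of growth.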 Calls of active or inactive are those of the source. Rule as the data show it: active = GI50 up to about 1.1 µM and inactive = higher.

Tests used:
Assay in all cases: NCI-60 cell line screen, 48 h
RPMI-8226 = tested on: RPMI-8226
KM12 = tested on: KM12
HCT-15 = tested on: HCT-15
MOLT-4 = tested on: MOLT-4
M14 = tested on: M14
SK-MEL-2 = tested on: SK-MEL-2
Hs-578T = tested on: Hs-578T
UO-31 = tested on: UO-31
CCRF-CEM = tested on: CCRF-CEM
U-251 = tested on: U-251
A549 = tested on: A549
OVCAR-5 = tested on: OVCAR-5
Malme-3M = tested on: Malme-3M
MDA-MB-435 = tested on: MDA-MB-435
OVCAR-4 = tested on: OVCAR-4
T47D = tested on: T47D
SNB-75 = tested on: SNB-75
RXF 393 = tested on: RXF 393
SF-268 = tested on: SF-268
CAKI-1 = tested on: CAKI-1

Row | Compound | GI50 (RPMI-8226) | GI50 (KM12) | GI50 (HCT-15) | GI50 (MOLT-4) | GI50 (M14) | GI50 (SK-MEL-2) | GI50 (Hs-578T) | GI50 (UO-31) | GI50 (CCRF-CEM) | GI50 (U-251) | GI50 (A549) | GI50 (OVCAR-5) | GI50 (Malme-3M) | GI50 (MDA-MB-435) | GI50 (OVCAR-4) | GI50 (T47D) | GI50 (SNB-75) | GI50 (RXF 393) | GI50 (SF-268) | GI50 (CAKI-1)
1 | Cc1cc(S(=O)(=O)Nc2nnc3ccccn23)c(S)cc1Cl | > 100 µM (inactive) | 38.1 µM (inactive) | > 100 µM | 71.6 µM (inactive) | > 100 µM (inactive) | 79.4 µM (inactive) | > 100 µM (inactive) | > 100 µM (inactive) | > 10 µM (inactive) | 47.9 µM (inactive) | 37.2 µM (inactive) | > 100 µM (inactive) | > 100 µM (inactive) | > 100 µM (inactive) | > 100 µM (inactive) | > 100 µM (inactive) |  |  |  | 
2 | O=C1/C(=C2/CCCN2)C(c2ccc[nH]2)=NN1c1ccccc1 | > 100 µM (inactive) | > 100 µM (inactive) | > 100 µM | > 100 µM (inactive) | > 100 µM (inactive) | > 100 µM (inactive) |  | > 100 µM (inactive) | 1.75 µM (inactive) | > 100 µM (inactive) | > 100 µM (inactive) | > 100 µM (inactive) | > 100 µM (inactive) | > 100 µM (inactive) | > 100 µM (inactive) | > 100 µM (inactive) | > 100 µM (inactive) | > 100 µM (inactive) | > 100 µM (inactive) | > 100 µM (inactive)
3 | O=C1CSC(c2ccc(Cl)cc2)N1c1ccc(Oc2ccc(Cl)cc2)c(Cl)c1 (configuration not stated) | 8.95 µM (inactive) | 15.7 µM (inactive) | 15.8 µM | 14.2 µM (inactive) | 16.7 µM (inactive) | 16 µM (inactive) | 11 µM (inactive) | 8.26 µM (inactive) | 5.46 µM (inactive) | 16.6 µM (inactive) | 16.2 µM (inactive) | 14.2 µM (inactive) | 7.66 µM (inactive) | 17.6 µM (inactive) | 14.7 µM (inactive) | 10.7 µM (inactive) | 12.3 µM (inactive) |  | 10.7 µM (inactive) | 13.3 µM (inactive)
4 | N#Cc1c2ccc([N+](=O)[O-])cc2c(=O)n2c1sc1ccccc12 | 9.93 µM (inactive) | 31.6 µM (inactive) | 22.2 µM |  |  | 17.3 µM (inactive) | 48 µM (inactive) | 22.6 µM (inactive) | 7.29 µM (inactive) | 14.6 µM (inactive) | 12.2 µM (inactive) |  |  | 57.7 µM (inactive) | 20.6 µM (inactive) | 14.8 µM (inactive) | 42.2 µM (inactive) |  | 56.2 µM (inactive) | 24.4 µM (inactive)
5 | O=C(Sc1c(-c2ccccc2)c(=O)n(-c2ccccc2)c(=S)n1-c1ccccc1)c1ccccc1 | 41.8 µM (inactive) | > 100 µM (inactive) | 60.7 µM | 19.5 µM (inactive) | 61.1 µM (inactive) | > 100 µM (inactive) | 33.7 µM (inactive) | 41.6 µM (inactive) | 15.8 µM (inactive) | 79.1 µM (inactive) | > 100 µM (inactive) | > 100 µM (inactive) | > 100 µM (inactive) | 93.3 µM (inactive) | > 100 µM (inactive) | 71.1 µM (inactive) | 12.3 µM (inactive) |  | > 100 µM (inactive) | > 100 µM (inactive)
6 | C=CCOCn1cc(F)c(=O)[nH]c1=O | > 100 µM (inactive) | > 100 µM (inactive) | > 100 µM | > 100 µM (inactive) | > 100 µM (inactive) |  | > 100 µM (inactive) | > 100 µM (inactive) | > 100 µM (inactive) |  | > 100 µM (inactive) |  | > 100 µM (inactive) | > 100 µM (inactive) |  | > 100 µM (inactive) | 31.6 µM (inactive) |  | > 100 µM (inactive) | > 100 µM (inactive)
7 | c1cc(CSP234N5CCN2CCN3CCN4CC5)ccc1CSP123N4CCN1CCN2CCN3CC4 | 16.4 µM (inactive) | > 100 µM (inactive) | > 100 µM | 91.4 µM (inactive) | > 100 µM (inactive) | > 100 µM (inactive) | > 100 µM (inactive) | 99.8 µM (inactive) | 27.4 µM (inactive) | 68.5 µM (inactive) | > 100 µM (inactive) | > 100 µM (inactive) |  | 97.3 µM (inactive) | > 100 µM (inactive) | > 100 µM (inactive) | > 100 µM (inactive) |  | > 100 µM (inactive) | > 100 µM (inactive)
8 | C[C@@H]1OC(=O)/C(=C\N(C)C)[C@H]2CC(=O)N(CCc3cn(S(=O)(=O)C(F)(F)F)c4ccccc34)C[C@H]12 | > 100 µM (inactive) | > 100 µM (inactive) | > 100 µM | > 100 µM (inactive) | > 100 µM (inactive) | > 100 µM (inactive) |  | > 100 µM (inactive) |  | > 100 µM (inactive) | > 100 µM (inactive) | > 100 µM (inactive) | > 100 µM (inactive) | > 100 µM (inactive) | > 100 µM (inactive) | > 100 µM (inactive) | > 100 µM (inactive) | > 100 µM (inactive) | > 100 µM (inactive) | > 100 µM (inactive)
9 | O=P1(c2ccccc2)C2=CCC=CC2C(c2ccccc2)N1Cc1ccccc1 (configuration not stated) | 13.3 µM (inactive) | 12.9 µM (inactive) | 14.5 µM | 16.1 µM (inactive) | 17.1 µM (inactive) | 15.5 µM (inactive) | 19 µM (inactive) | 12.4 µM (inactive) | 15.5 µM (inactive) | 14.3 µM (inactive) | 14.7 µM (inactive) | > 100 µM (inactive) | 17.8 µM (inactive) | 15.6 µM (inactive) |  | 16.3 µM (inactive) |  |  | 14.7 µM (inactive) | 13.7 µM (inactive)
10 | CN(C)c1nc2nonc2nc1Nc1ccccc1 | > 100 µM (inactive) |  | > 100 µM | > 100 µM (inactive) | > 100 µM (inactive) | > 100 µM (inactive) | > 100 µM (inactive) | > 100 µM (inactive) | > 100 µM (inactive) | > 100 µM (inactive) | > 100 µM (inactive) | > 100 µM (inactive) | > 100 µM (inactive) |  |  | > 100 µM (inactive) | > 100 µM (inactive) | > 100 µM (inactive) | > 100 µM (inactive) | 
11 | Cc1ccc(OCC2OC(n3cnc4nc(N)nc(Cl)c43)CC2Oc2ccc(C)cc2)cc1 (configuration not stated) | 7.98 µM (inactive) | 21 µM (inactive) | 14.9 µM | 4.51 µM (inactive) | 15.8 µM (inactive) | 17.7 µM (inactive) | 15.4 µM (inactive) |  | 45.1 µM (inactive) | 29.6 µM (inactive) | 21.3 µM (inactive) | 18.3 µM (inactive) | 24.3 µM (inactive) | 27.9 µM (inactive) | 23.2 µM (inactive) | 14.9 µM (inactive) | 11 µM (inactive) |  | 15.4 µM (inactive) | 4.08 µM (inactive)
12 | Cc1cc(C)c2c(O)cc(-c3ccc(F)cc3)nc2n1 | 24.8 µM (inactive) | 20.7 µM (inactive) | 47.1 µM | 29.9 µM (inactive) | 45.7 µM (inactive) | 38.7 µM (inactive) | 69 µM (inactive) | 23.9 µM (inactive) | 26.7 µM (inactive) |  | 44.6 µM (inactive) | 80.5 µM (inactive) | 42.9 µM (inactive) |  | 17.6 µM (inactive) | 37.8 µM (inactive) | 27.2 µM (inactive) |  | 42.1 µM (inactive) | 33.6 µM (inactive)
